In ChEMBL document CHEMBL3399990, “Synthesis of mycothiol conjugate analogues and evaluation of their antimycobacterial activity” (Bioorg Med Chem Lett, 2015):
≈ marks a conversion by molar mass, not a printed value.

Test system: Mycobacterium tuberculosis
Experiment: Bacteriostatic activity against Mycobacterium bovis BCG after 7 days by Alamar Blue assay
Type: functional
Settings: variant bovis BCG, 168 h

Structure (SMILES)	MIC [µM]
N[C@@H](CSC(Cl)=C(Cl)Cl)C(=O)N[C@@H]1[C@@H](O)[C@H](O)[C@@H](CO)O[C@@H]1SC1CCCCC1	62.5 (≈ 31.9 µg/mL)
N[C@@H](CSC(Cl)=C(Cl)Cl)C(=O)N[C@@H]1[C@@H](O)[C@H](O)[C@@H](CO)O[C@H]1SC1CCCCC1	125 (≈ 63.7 µg/mL)
CC(C)(C)OC(=O)N[C@@H](CSC(Cl)=C(Cl)Cl)C(=O)N[C@@H]1[C@@H](O)[C@H](O)[C@@H](CO)O[C@@H]1SC1CCCCC1	500 (≈ 305 µg/mL)
CC(C)(C)OC(=O)N[C@@H](CSC(Cl)=C(Cl)Cl)C(=O)N[C@@H]1[C@@H](O)[C@H](O)[C@@H](CO)O[C@H]1SC1CCCCC1	≥ 1000
